Results taken from patent US20090192312A1, “Brain Function-Improving Agent, and Functional Food Containing the Improving Agent” (MITSUBISHI GAS CHEMICAL COMPANY, INC., priority 2006, published 2009).

Test system: Male Wistar rats
Test: Morris water maze test of learning and memory abilities
Assay type: in vivo
Conditions: feed containing 0.02% PQQ·2Na, 21 days of breeding; one trial daily for 20 days; versus PQQ·2Na-free treatment groups; 9 animals per group
Source text: Male Wistar rats (9 weeks old) were bred using a feed containing 0.02% pyrroloquinoline quinone disodium salt (PQQ·2Na) or 0.3% coenzyme Q10 (CoQ10) alone or both in combination or a feed free from these compounds. From the age of 12 week old after 21 days of breeding, 9 animals per group were subjected to a test of learning and memory abilities using a Morris water maze. Specifically, the bottom of a circular pool (150 cm in diameter, 45 cm in depth) was divided into four quadrants with white lines. A circular platform was placed at the center of one of the quadrants so that it was hidden under the water. Each rat was allowed to swim from different positions of the other three quadrants having no platform, and the time until it reached the platform was measured. This test was tried once daily for a total of 20 days. The learning rate was calculated by the following equation: Learning rate (%)=100−(mean time until rat reaches the platform at the Xth trial/mean time until rat reaches the platform at the first trial)×100

SMILES: O=C(O)c1cc(C(=O)O)c2c(n1)C(=O)C(=O)c1cc(C(=O)O)[nH]c1-2.[Na].[Na] [PQQ·2Na, pyrroloquinoline quinone disodium salt]
- increasing rate of the learning rate: statistically significantly higher
